{
  "source": "patent US20140249135A1",
  "about": "“PIM KINASE INHIBITORS AND METHODS OF THEIR USE” (NOVARTIS AG, priority 2007, published 2014)",
  "key": {"Pim3 kinase": {"biological_target": "Pim3 kinase (Homo sapiens, UniProt Q86V86)", "assay": "Pim3 ATP depletion assay", "assay_type": "biochemical", "conditions": "read-out: IC50 (μM) PIM3"}, "Pim1 kinase": {"biological_target": "Pim1 kinase (Homo sapiens, UniProt P11309)", "sequence (P11309 whole entry)": "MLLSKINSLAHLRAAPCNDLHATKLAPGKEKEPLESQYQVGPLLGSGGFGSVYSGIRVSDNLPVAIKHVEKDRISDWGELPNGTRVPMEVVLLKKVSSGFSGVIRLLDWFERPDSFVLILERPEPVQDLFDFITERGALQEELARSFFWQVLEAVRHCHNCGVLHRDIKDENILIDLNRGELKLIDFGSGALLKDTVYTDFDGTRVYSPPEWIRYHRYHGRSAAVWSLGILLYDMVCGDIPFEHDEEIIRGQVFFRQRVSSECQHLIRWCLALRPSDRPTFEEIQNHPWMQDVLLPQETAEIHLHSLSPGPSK", "assay": "Pim1 ATP depletion assay;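 further: Luciferase-luciferin luminescence readout of residual ATP after PIM1 transfers phosphate to a peptide substrate, 40 µM ATP added, reaction run to roughly half ATP consumption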", "assay_type": "biochemical"}, "KDR kinase": {"biological_target": "KDR kinase (Homo sapiens, UniProt P35968)", "sequence (P35968 20-1356)": "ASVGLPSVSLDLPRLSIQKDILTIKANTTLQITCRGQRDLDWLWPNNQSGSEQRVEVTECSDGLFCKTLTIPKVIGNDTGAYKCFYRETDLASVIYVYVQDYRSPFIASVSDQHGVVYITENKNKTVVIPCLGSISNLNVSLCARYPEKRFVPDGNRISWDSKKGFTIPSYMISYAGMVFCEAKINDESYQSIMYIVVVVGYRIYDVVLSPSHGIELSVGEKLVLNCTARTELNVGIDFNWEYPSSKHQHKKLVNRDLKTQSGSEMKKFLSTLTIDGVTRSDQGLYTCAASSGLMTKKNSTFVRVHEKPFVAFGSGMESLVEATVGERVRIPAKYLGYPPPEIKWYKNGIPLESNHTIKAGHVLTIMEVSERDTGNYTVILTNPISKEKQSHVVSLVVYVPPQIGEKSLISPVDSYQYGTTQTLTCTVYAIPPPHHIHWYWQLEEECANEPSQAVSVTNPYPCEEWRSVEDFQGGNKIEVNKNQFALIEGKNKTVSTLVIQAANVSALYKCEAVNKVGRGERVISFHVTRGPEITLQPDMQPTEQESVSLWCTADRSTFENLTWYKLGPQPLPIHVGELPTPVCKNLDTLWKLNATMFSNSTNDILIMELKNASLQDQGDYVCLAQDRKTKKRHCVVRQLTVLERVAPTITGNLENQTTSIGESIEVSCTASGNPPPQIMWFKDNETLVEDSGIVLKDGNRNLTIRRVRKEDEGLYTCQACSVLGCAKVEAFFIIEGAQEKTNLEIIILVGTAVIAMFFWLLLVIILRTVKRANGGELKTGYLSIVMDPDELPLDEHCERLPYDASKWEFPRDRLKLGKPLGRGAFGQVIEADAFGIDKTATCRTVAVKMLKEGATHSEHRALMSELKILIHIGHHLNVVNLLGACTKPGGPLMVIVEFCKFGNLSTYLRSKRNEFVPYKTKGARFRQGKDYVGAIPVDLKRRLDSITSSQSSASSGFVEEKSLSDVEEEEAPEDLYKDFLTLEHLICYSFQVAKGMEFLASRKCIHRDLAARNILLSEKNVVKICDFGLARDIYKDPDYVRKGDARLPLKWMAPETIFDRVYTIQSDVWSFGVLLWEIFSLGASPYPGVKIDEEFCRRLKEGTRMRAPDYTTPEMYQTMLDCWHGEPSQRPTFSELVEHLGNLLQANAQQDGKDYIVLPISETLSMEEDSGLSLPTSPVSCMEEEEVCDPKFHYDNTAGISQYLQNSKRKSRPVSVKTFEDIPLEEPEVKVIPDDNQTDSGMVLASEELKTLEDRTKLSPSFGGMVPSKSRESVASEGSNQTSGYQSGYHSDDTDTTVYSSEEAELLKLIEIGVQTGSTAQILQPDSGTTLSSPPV", "assay": "KDR AlphaScreen assay", "conditions": "KDR IC50 (μM)"}, "[1]": {"biological_target": "T1, human full length PKCE enzyme (Homo sapiens, UniProt Q02156)", "T1 construct": "human full length PKCE enzyme purchased from InVitrogen; purchased InVitrogen", "T1 sequence (Q02156 1-737)": "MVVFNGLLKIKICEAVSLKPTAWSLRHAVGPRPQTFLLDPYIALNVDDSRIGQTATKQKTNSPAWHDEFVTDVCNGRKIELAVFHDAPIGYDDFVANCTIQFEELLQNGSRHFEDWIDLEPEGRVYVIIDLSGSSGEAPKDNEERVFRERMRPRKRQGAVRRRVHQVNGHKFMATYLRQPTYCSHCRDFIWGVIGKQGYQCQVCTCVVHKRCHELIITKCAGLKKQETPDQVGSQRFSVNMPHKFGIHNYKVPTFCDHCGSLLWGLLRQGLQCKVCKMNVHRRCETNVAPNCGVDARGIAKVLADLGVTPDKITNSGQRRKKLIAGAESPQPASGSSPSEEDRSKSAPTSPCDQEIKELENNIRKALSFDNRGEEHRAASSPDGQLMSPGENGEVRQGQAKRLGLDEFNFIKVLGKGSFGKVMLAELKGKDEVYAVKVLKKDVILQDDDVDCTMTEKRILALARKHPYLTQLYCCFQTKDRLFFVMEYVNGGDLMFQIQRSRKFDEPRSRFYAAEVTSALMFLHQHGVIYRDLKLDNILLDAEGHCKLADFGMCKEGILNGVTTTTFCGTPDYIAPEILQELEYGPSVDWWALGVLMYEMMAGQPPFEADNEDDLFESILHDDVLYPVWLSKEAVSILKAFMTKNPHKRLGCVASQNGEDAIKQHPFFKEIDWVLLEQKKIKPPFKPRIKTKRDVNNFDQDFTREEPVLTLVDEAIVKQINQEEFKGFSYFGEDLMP", "assay": "In vitro PKCE assay", "assay_type": "biochemical", "conditions": "10 nM enzyme, 40 uM peptide substrate, 20 uM ATP, KinaseGlo Plus readout; read-out: PKCε IC50"}, "Pim2 kinase": {"biological_target": "Pim2 kinase (Homo sapiens, UniProt Q9P1W9)", "sequence (Q9P1W9 whole entry)": "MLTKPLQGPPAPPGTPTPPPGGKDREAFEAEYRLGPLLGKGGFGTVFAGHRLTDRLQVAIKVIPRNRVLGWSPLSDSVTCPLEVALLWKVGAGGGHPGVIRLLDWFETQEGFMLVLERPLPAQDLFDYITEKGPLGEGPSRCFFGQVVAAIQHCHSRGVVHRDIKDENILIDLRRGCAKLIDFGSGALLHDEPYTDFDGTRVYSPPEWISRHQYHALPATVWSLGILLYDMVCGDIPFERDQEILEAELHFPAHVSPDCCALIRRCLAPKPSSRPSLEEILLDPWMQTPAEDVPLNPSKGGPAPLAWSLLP", "assay": "Pim2 ATP depletion assay;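 further: Luciferase-based luminescent readout of ATP remaining after PIM2 phosphorylates a BAD peptide, final 5 nM enzyme, 4 µM ATP, 10 µM peptide, 2.5% DMSO, run to roughly half ATP consumption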", "assay_type": "biochemical", "conditions": "read-out: IC50 (μM) PIM2"}, "[2]": {"conditions": "Pim1 ATP depletion assay, read-out: IC50 (μM) PIM1"}},
  "note": "Where “and” joins values, the source holds several entries; their conditions need not be identical. Equal values may be shown once. Read-outs that look alike come from different tables or passages of the source.",
  "data": [
    {"compound": "Nc1nccnc1C(=O)Nc1cnccc1C1=CCCCC1", "note": "[Example 118, 3-amino-N-(4-cyclohex-1-en-1-ylpyridin-3-yl)pyrazine-2-carboxamide]", "values": [
      {"measurement": "IC50", "setting": "Pim3 kinase", "value": "< 1", "unit": "µM"},
      {"measurement": "IC50", "setting": "Pim1 kinase; [2]", "value": "< 1", "unit": "µM"},
      {"measurement": "IC50", "setting": "KDR kinase", "value": "< 1", "unit": "µM"},
      {"measurement": "IC50", "setting": "[1]", "value": "< 1000", "unit": "nM"},
      {"measurement": "IC50", "setting": "Pim2 kinase", "value": "1 to 10", "unit": "µM"}
    ]},
    {"compound": "Nc1ncc(Br)nc1C(=O)Nc1cnccc1N1CCCCC1", "note": "[Example 119, 3-amino-6-bromo-N-(4-piperidin-1-ylpyridin-3-yl)pyrazine-2-carboxamide]", "values": [
      {"measurement": "IC50", "setting": "Pim3 kinase", "value": "< 1", "unit": "µM"},
      {"measurement": "IC50", "setting": "Pim1 kinase; [2]", "value": "< 1", "unit": "µM"},
      {"measurement": "IC50", "setting": "KDR kinase", "value": "1 to 10", "unit": "µM"},
      {"measurement": "IC50", "setting": "[1]", "value": "< 1000", "unit": "nM"},
      {"measurement": "IC50", "setting": "Pim2 kinase", "value": "< 1", "unit": "µM"}
    ]},
    {"compound": "Nc1nc(N)c(C(=O)Nc2cnccc2N2CCCCC2)nc1Cl", "note": "[Example 121, 3,5-diamino-6-chloro-N-(4-piperidin-1-ylpyridin-3-yl)-pyrazine-2-carboxamide]", "values": [
      {"measurement": "IC50", "setting": "Pim3 kinase", "value": "< 1", "unit": "µM"},
      {"measurement": "IC50", "setting": "Pim1 kinase; [2]", "value": "< 1", "unit": "µM"},
      {"measurement": "IC50", "setting": "KDR kinase", "value": "< 1", "unit": "µM"},
      {"measurement": "IC50", "setting": "[1]", "value": "> 25000", "unit": "nM"},
      {"measurement": "IC50", "setting": "Pim2 kinase", "value": "< 1", "unit": "µM"}
    ]},
    {"compound": "Nc1nccnc1C(=O)Nc1cnccc1Cl", "note": "[Example 125, 3-amino-N-(4-chloropyridin-3-yl)pyrazine-2-carboxamide]", "values": [
      {"measurement": "IC50", "setting": "Pim3 kinase", "value": "10 to 25", "unit": "µM"},
      {"measurement": "IC50", "setting": "Pim1 kinase; [2]", "value": "1 to 10", "unit": "µM"},
      {"measurement": "IC50", "setting": "KDR kinase", "value": "1 to 10", "unit": "µM"},
      {"measurement": "IC50", "setting": "[1]", "value": "10000 to 25000", "unit": "nM"},
      {"measurement": "IC50", "setting": "Pim2 kinase", "value": "> 25", "unit": "µM"}
    ]},
    {"compound": "Nc1nccnc1C(=O)Nc1cnccc1N1CCC2(CC1)OCCO2", "note": "[Example 127, 3-amino-N-[4-(1,4-dioxa-8-azaspiro[4.5]dec-8-yl)pyridin-3-yl]pyrazine-2-carboxamide]", "values": [
      {"measurement": "IC50", "setting": "Pim3 kinase", "value": "> 25", "unit": "µM"},
      {"measurement": "IC50", "setting": "Pim1 kinase; [2]", "value": "1 to 10", "unit": "µM"},
      {"measurement": "IC50", "setting": "KDR kinase", "value": "> 25", "unit": "µM"},
      {"measurement": "IC50", "setting": "[1]", "value": "1000 to 10000", "unit": "nM"},
      {"measurement": "IC50", "setting": "Pim2 kinase", "value": "> 25", "unit": "µM"}
    ]},
    {"compound": "Nc1ncc(Br)nc1C(=O)Nc1[nH]c(=O)ncc1N1CCCCC1", "note": "[Example 132, 3-amino-6-bromo-N-(2-oxo-5-piperidin-1-yl-2,3-dihydro-pyrimidin-4-yl)pyrazine-2-carboxamide]", "values": [
      {"measurement": "IC50", "setting": "Pim3 kinase", "value": "< 1", "unit": "µM"},
      {"measurement": "IC50", "setting": "Pim1 kinase; [2]", "value": "< 1", "unit": "µM"},
      {"measurement": "IC50", "setting": "KDR kinase", "value": "< 1", "unit": "µM"},
      {"measurement": "IC50", "setting": "[1]", "value": "< 1000", "unit": "nM"},
      {"measurement": "IC50", "setting": "Pim2 kinase", "value": "< 1", "unit": "µM"}
    ]},
    {"compound": "NC(=O)c1ccc(N2CCCCC2)c(NC(=O)c2nc(Br)cnc2N)c1", "note": "[Example 133, 3-amino-6-bromo-N-(5-carbamoyl-2-piperidin-1-yl-phenyl)pyrazine-2-carboxamide]", "values": [
      {"measurement": "IC50", "setting": "Pim3 kinase", "value": "< 1", "unit": "µM"},
      {"measurement": "IC50", "setting": "Pim1 kinase; [2]", "value": "< 1", "unit": "µM"},
      {"measurement": "IC50", "setting": "KDR kinase", "value": "1 to 10", "unit": "µM"},
      {"measurement": "IC50", "setting": "[1]", "value": "> 25000", "unit": "nM"},
      {"measurement": "IC50", "setting": "Pim2 kinase", "value": "< 1", "unit": "µM"}
    ]},
    {"compound": "Nc1nc(N)c(C(=O)Nc2[nH]c(=O)ncc2N2CCCC(N)C2)nc1Cl", "note": "(centres unmarked) [Example 134, 3,5-diamino-N-[5-(3-amino-piperidin-1-yl)-2-oxo-2,3-dihydropyrimidin-4-yl]-6-chloropyrazine-2-carboxamide]", "values": [
      {"measurement": "IC50", "setting": "Pim3 kinase", "value": "< 1", "unit": "µM"},
      {"measurement": "IC50", "setting": "Pim1 kinase; [2]", "value": "< 1", "unit": "µM"},
      {"measurement": "IC50", "setting": "KDR kinase", "value": "1 to 10", "unit": "µM"},
      {"measurement": "IC50", "setting": "[1]", "value": "1000 to 10000", "unit": "nM"},
      {"measurement": "IC50", "setting": "Pim2 kinase", "value": "< 1", "unit": "µM"}
    ]},
    {"compound": "NCC1CCCN(c2cnc(=O)[nH]c2NC(=O)c2nccnc2N)C1", "note": "(centres unmarked) [Example 135, 3-amino-N-{5-[3-(amino-methyl)piperidin-1-yl]-2-oxo-2,3-dihydropyrimidin-4-yl}-pyrazine-2-carboxamide]", "values": [
      {"measurement": "IC50", "setting": "Pim3 kinase", "value": "< 1", "unit": "µM"},
      {"measurement": "IC50", "setting": "Pim1 kinase; [2]", "value": "< 1", "unit": "µM"},
      {"measurement": "IC50", "setting": "KDR kinase", "value": "1 to 10", "unit": "µM"},
      {"measurement": "IC50", "setting": "[1]", "value": "< 1000", "unit": "nM"},
      {"measurement": "IC50", "setting": "Pim2 kinase", "value": "< 1", "unit": "µM"}
    ]},
    {"compound": "NCC(=O)N1CCN(c2ccncc2NC(=O)c2nc(Cl)c(N)nc2N)CC1", "note": "[Example 186, 3,5-diamino-N-{4-[4-(amino-acetyl)piperazin-1-yl]pyridin-3-yl}-6-chloropyrazine-2-carboxamide]", "values": [
      {"measurement": "IC50", "setting": "Pim3 kinase", "value": "< 1", "unit": "µM"},
      {"measurement": "IC50", "setting": "Pim1 kinase; [2]", "value": "< 1", "unit": "µM"},
      {"measurement": "IC50", "setting": "KDR kinase", "value": "1 to 10", "unit": "µM"},
      {"measurement": "IC50", "setting": "[1]", "value": "1000 to 10000", "unit": "nM"},
      {"measurement": "IC50", "setting": "Pim2 kinase", "value": "< 1", "unit": "µM"}
    ]},
    {"compound": "NCCC(=O)N1CCN(c2ccncc2NC(=O)c2nccnc2N)CC1", "note": "[Example 188, 3-amino-N-{4-[4-(3-aminopropanoyl)piperazin-1-yl]pyridin-3-yl}pyrazine-2-carboxamide]", "values": [
      {"measurement": "IC50", "setting": "Pim3 kinase", "value": "< 1", "unit": "µM"},
      {"measurement": "IC50", "setting": "Pim1 kinase", "value": "< 1", "unit": "µM"},
      {"measurement": "IC50", "setting": "KDR kinase", "value": "1 to 10", "unit": "µM"},
      {"measurement": "IC50", "setting": "[1]", "value": "< 1000", "unit": "nM"},
      {"measurement": "IC50", "setting": "Pim2 kinase", "value": "1 to 10", "unit": "µM"}
    ]},
    {"compound": "Nc1nccnc1C(=O)Nc1cccnc1N1CCCC(N)C1", "note": "(centres unmarked) [Example 196, 3-amino-N-[2-(3-aminopiperidin-1-yl)pyridin-3-yl]pyrazine-2-carboxamide]", "values": [
      {"measurement": "IC50", "setting": "Pim3 kinase", "value": "1 to 10", "unit": "µM"},
      {"measurement": "IC50", "setting": "Pim1 kinase; [2]", "value": "1 to 10", "unit": "µM"},
      {"measurement": "IC50", "setting": "KDR kinase", "value": "> 25", "unit": "µM"},
      {"measurement": "IC50", "setting": "[1]", "value": "1000 to 10000", "unit": "nM"},
      {"measurement": "IC50", "setting": "Pim2 kinase", "value": "10 to 25", "unit": "µM"}
    ]},
    {"compound": "Nc1nccnc1C(=O)Nc1cnccc1N1CCCNCC1", "note": "[Example 199, 3-amino-N-[4-(1,4-diazepan-1-yl)pyridin-3-yl]pyrazine-2-carboxamide]", "values": [
      {"measurement": "IC50", "setting": "Pim3 kinase", "value": "> 25 µM and 10 to 25 µM"},
      {"measurement": "IC50", "setting": "Pim1 kinase; [2]", "value": "1 to 10", "unit": "µM"},
      {"measurement": "IC50", "setting": "KDR kinase", "value": "1 to 10", "unit": "µM"},
      {"measurement": "IC50", "setting": "[1]", "value": "1000 to 10000", "unit": "nM"},
      {"measurement": "IC50", "setting": "Pim2 kinase", "value": "> 25", "unit": "µM"}
    ]}
  ]
}
